Test results reported in the supplement of paper PMC10307832.

Assays:
Assay in all cases: relative viability (nuclei count vs DMSO), 5 days (fraction); higher = more cells survive
[1] = compound: CC1=CC=C(C=C1)C(=O)CN2C3=C(CCCC3)SC2=N [Pifithrin_alpha] + O=C(c1cc(Cc2n[nH]c(=O)c3ccccc23)ccc1F)N1CCN(C(=O)C2CC2)CC1 [Olaparib] (partner 8 µM)
Procedure, shortened: (§1)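 The day after seeding in 1536-well plates, lung cancer cell lines were treated by pin tool with a single drug, or with a fixed anchor-drug dose together with five library-drug doses (not always all listed) in √10 steps. After 5 days, a combined fix-and-stain solution (final 0.05% Triton X-100, 1% formaldehyde, 1 ug/ml Hoechst) was added. Nuclei counted on 4× images gave relative viability as treated counts over vehicle counts, reported as the median of duplicate plates.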

Axitinib + AZD7762 = compound: CNC(=O)c1ccccc1Sc1ccc2c(/C=C/c3ccccn3)n[nH]c2c1 [Axitinib] + NC(=O)Nc1cc(-c2cccc(F)c2)sc1C(=O)N[C@H]1CCCNC1 [AZD7762] (partner 0.2 µM)
Procedure, shortened: as §1

Axitinib + Pictilisib = compound: CNC(=O)c1ccccc1Sc1ccc2c(/C=C/c3ccccn3)n[nH]c2c1 [Axitinib] + CS(=O)(=O)N1CCN(Cc2cc3nc(-c4cccc5[nH]ncc45)nc(N4CCOCC4)c3s2)CC1 [Pictilisib] (partner 1 µM)
Procedure, shortened: as §1

Axitinib + Dasatinib = compound: CNC(=O)c1ccccc1Sc1ccc2c(/C=C/c3ccccn3)n[nH]c2c1 [Axitinib] + Cc1nc(Nc2ncc(C(=O)Nc3c(C)cccc3Cl)s2)cc(N2CCN(CCO)CC2)n1 [Dasatinib] (partner 0.075 µM)
Procedure, shortened: as §1

Cell Line | relative viability ([1]; first compound 1 µM) | relative viability ([1]; first compound 3.162 µM) | relative viability ([1]; first compound 10 µM) | relative viability ([1]; first compound 31.62 µM) | relative viability ([1]; first compound 100 µM) | relative viability (Axitinib + AZD7762; first compound 0.005 µM) | relative viability (Axitinib + AZD7762; first compound 0.01581 µM) | relative viability (Axitinib + AZD7762; first compound 0.05 µM) | relative viability (Axitinib + AZD7762; first compound 0.1581 µM) | relative viability (Axitinib + AZD7762; first compound 0.5 µM) | relative viability (Axitinib + Pictilisib; first compound 0.005 µM) | relative viability (Axitinib + Pictilisib; first compound 0.01581 µM) | relative viability (Axitinib + Pictilisib; first compound 0.05 µM) | relative viability (Axitinib + Pictilisib; first compound 0.1581 µM) | relative viability (Axitinib + Pictilisib; first compound 0.5 µM) | relative viability (Axitinib + Dasatinib; first compound 0.005 µM) | relative viability (Axitinib + Dasatinib; first compound 0.01581 µM) | relative viability (Axitinib + Dasatinib; first compound 0.05 µM) | relative viability (Axitinib + Dasatinib; first compound 0.5 µM) | relative viability (Axitinib + Dasatinib; first compound 0.1581 µM)
HCC-44 | 0.918 | 0.877 | 0.818 | 0.553 | 0.627 | 1.07 | 1.04 | 1.01 | 0.992 | 1.03 | 0.56 | 0.734 | 0.682 | 0.695 | 0.546 |  |  |  |  | 
IA-LM | 0.758 | 0.699 | 0.332 | 0.192 | 0.271 |  |  |  |  |  | 0.442 | 0.307 | 0.331 | 0.396 | 0.4 |  |  |  |  | 
NCI-H520 | 0.319 | 0.286 | 0.317 | 0.301 | 0.292 |  |  |  |  |  | 0.326 | 0.247 | 0.288 | 0.272 | 0.327 | 0.197 | 0.159 | 0.194 | 0.192 | 
NCI-H522 | 0.594 | 0.604 | 0.618 | 0.516 | 0.564 | 0.754 | 0.924 | 0.787 | 0.9 | 0.794 |  |  |  |  |  | 1.51 | 0.842 | 0.883 | 0.728 | 0.898
NCI-H661 | 0.777 | 0.882 | 0.656 | 0.601 | 0.669 |  |  |  |  |  | 0.387 | 0.422 | 0.339 | 0.46 | 0.375 | 1.01 | 0.737 | 0.843 | 0.927 | 0.83
NCI-H1299 | 0.964 | 1 | 0.985 | 0.514 | 0.794 |  |  |  |  |  | 0.765 | 0.997 | 0.75 | 0.856 | 1.1 |  |  |  |  | 
NCI-H1563 |  |  |  |  |  |  |  |  |  |  | 0.645 | 0.599 | 0.647 | 0.681 | 0.659 | 0.482 | 0.456 | 0.457 | 0.426 | 0.449
NCI-H1623 |  |  |  |  |  |  |  |  |  |  |  |  |  |  |  | 0.574 | 0.477 | 0.559 | 0.506 | 0.528
NCI-H1648 | 1.1 | 0.741 | 0.963 | 0.619 | 0.682 | 0.725 | 0.57 | 0.666 | 0.733 | 0.682 |  |  |  |  |  |  |  |  |  | 
NCI-H1650 | 0.596 | 1.09 | 0.373 | 0.298 | 0.408 |  |  |  |  |  | 0.624 | 0.36 | 0.644 | 0.529 | 0.585 | 0.317 | 0.318 | 0.324 | 0.302 | 0.332
NCI-H1703 | 0.418 | 0.328 | 0.382 | 0.313 | 0.326 | 0.135 | 0.11 | 0.118 | 0.121 | 0.125 | 0.228 | 0.216 | 0.254 | 0.231 | 0.2 |  |  |  |  | 
NCI-H2009 | 0.701 | 0.903 | 0.594 | 0.286 | 0.614 |  |  |  |  |  | 0.875 | 0.877 | 1 | 0.868 | 1.04 | 0.303 | 0.35 | 0.355 | 0.413 | 0.301
NCI-H2023 | 0.514 | 0.455 | 0.318 | 0.301 | 0.244 |  |  |  |  |  | 0.232 | 0.195 | 0.267 | 0.222 | 0.272 | 0.537 | 0.525 | 0.701 | 0.621 | 0.515
NCI-H2228 | 0.681 | 0.634 | 0.605 | 0.647 | 0.549 |  |  |  |  |  | 0.472 | 0.391 | 0.416 | 0.486 | 0.622 | 0.471 | 0.616 | 0.558 | 0.697 | 0.476
NCI-H2342 | 0.519 | 0.415 | 0.42 | 0.373 | 0.43 | 0.554 | 0.437 | 0.688 | 0.513 | 0.429 |  |  |  |  |  | 0.311 | 0.325 | 0.347 | 0.297 | 0.349
SK-LU-1 | 0.418 | 0.486 | 0.453 | 0.354 | 0.457 |  |  |  |  |  | 0.553 | 0.569 | 0.558 | 0.567 | 0.659 | 0.163 | 0.186 | 0.171 | 0.215 | 0.181
SK-MES-1 | 0.479 | 0.493 | 0.292 | 0.241 | 0.373 |  |  |  |  |  | 0.303 | 0.391 | 0.337 | 0.409 | 0.481 | 0.42 | 0.435 | 0.446 | 0.622 | 0.382
SW 900 | 0.646 | 0.57 | 0.56 | 0.378 | 0.487 | 0.52 |  | 0.562 | 0.579 | 0.66 |  |  |  |  |  | 0.439 | 0.555 | 0.663 | 0.709 | 0.653
SW 1573 | 0.493 | 0.466 | 0.413 |  | 0.342 |  |  |  |  |  | 0.507 | 0.462 | 0.576 | 0.444 | 0.463 | 0.586 | 0.564 | 0.796 | 0.424 | 0.365
UMC-11 | 0.367 | 0.365 | 1.09 | 0.402 | 0.249 |  |  |  |  |  | 0.818 | 0.82 | 0.857 | 0.835 | 0.627 | 0.447 | 0.442 | 0.448 | 0.54 | 0.444
